Measurements from patent US9388181B2, “Substituted 1,2,3,4-tetrahydropyrido[3,4-E] pyrrolo[1,2-A]pyrimidines as kinase” (Allergan, Inc., priority 2014, dated 2016).

Tests used:
VEGFR2 (KDR) = VEGFR2 (KDR) (Homo sapiens (Human), UniProt P35968); test: VEGFR2 Kinase Assay (biochemical KDR kinase assay, ELISA); details: purified cytoplasmic domain KDR protein, 2.7 μM ATP
Protocol: Biochemical KDR kinase assays were performed in 96 well microtiter plates that were coated overnight with 75 μg/well of poly-Glu-Tyr (4:1) in 10 mM Phosphate Buffered Saline (PBS), pH 7.4. The coated plates were washed with 2 mls per well PBS+0.05% Tween-20 (PBS-T), blocked by incubation with PBS containing 1% BSA, then washed with 2 mls per well PBS-T prior to starting the reaction. Reactions were carried out in 100 μL reaction volumes containing 2.7 μM ATP in kinase buffer (50 mM Hepes buffer pH 7.4, 20 mM MgCl2, 0.1 mM MnCl2 and 0.2 mM Na3VO4). Test compounds were reconstituted in 100% DMSO and added to the reaction to give a final DMSO concentration of 5%. Reactions were initiated by the addition 20 ul per well of kinase buffer containing 200-300 ng purified cytoplasmic domain KDR protein (BPS Bioscience, San Diego, Calif.). Following a 15 minute incubation at 30° C., the reactions were washed 2 mls per well PBS-T. 100 μl of a monoclonal anti-phosphotyrosine antibody-peroxidase conjugate diluted 1:10,000 in PBS-T was added to the wells for 30 minutes. Following a 2 mis per well wash with PBS-Tween-20, 100 μl of O-Phenylenediamine Dihydrochloride in phosphate-citrate buffer, containing urea hydrogen peroxide, was added to the wells for 7-10 minutes as a colorimetric substrate for the peroxidase. The reaction was terminated by the addition of 100 μl of 2.5N H2SO4 to each well and read using a microplate ELISA reader set at 492 nm. IC50 values for compound inhibition were calculated directly from graphs of optical density (arbitrary units) versus compound concentration following subtraction of blank values.

PDGFRβ [1] = target: T1, PDGFRβ (Homo sapiens (Human), UniProt P09619); test: PDGFRβ Kinase Assay (biochemical, ELISA); details: purified cytoplasmic domain PDGFR-b protein, 36 μM ATP
Protocol: Biochemical PDGFRβ kinase assays were performed in 96 well microtiter plates that were coated overnight with 75 μg of poly-Glu-Tyr (4:1) in 10 mM Phosphate Buffered Saline (PBS), pH 7.4. The coated plates were washed with 2 mls per well PBS+0.05% Tween-20 (PBS-T), blocked by incubation with PBS containing 1% BSA, then washed with 2 mls per well PBS-T prior to starting the reaction. Reactions were carried out in 100 μL reaction volumes containing 36 μM ATP in kinase buffer (50 mM Hepes buffer pH 7.4, 20 mM MgCl2, 0.1 mM MnCl2 and 0.2 mM Na3VO4). Test compounds were reconstituted in 100% DMSO and added to the reaction to give a final DMSO concentration of 5%. Reactions were initiated by the addition 20 ul per well of kinase buffer containing 200-300 ng purified cytoplasmic domain PDGFR-b protein (Millipore). Following a 60 minute incubation at 30° C., the reactions were washed 2 mls per well PBS-T. 100 μl of a monoclonal anti-phosphotyrosine antibody-peroxidase conjugate diluted 1:10,000 in PBS-T was added to the wells for 30 minutes. Following a 2 mis per well wash with PBS-Tween-20, 100 μl of 0-Phenylenediamine Dihydrochloride in phosphate-citrate buffer, containing urea hydrogen peroxide, was added to the wells for 7-10 minutes as a colorimetric substrate for the peroxidase. The reaction was terminated by the addition of 100 μl of 2.5N H2SO4 to each well and read using a microplate ELISA reader set at 492 nm. IC50 values for compound inhibition were calculated directly from graphs of optical density (arbitrary units) versus compound concentration following subtraction of blank values.
Target sequence in this assay (P09619 554-1106): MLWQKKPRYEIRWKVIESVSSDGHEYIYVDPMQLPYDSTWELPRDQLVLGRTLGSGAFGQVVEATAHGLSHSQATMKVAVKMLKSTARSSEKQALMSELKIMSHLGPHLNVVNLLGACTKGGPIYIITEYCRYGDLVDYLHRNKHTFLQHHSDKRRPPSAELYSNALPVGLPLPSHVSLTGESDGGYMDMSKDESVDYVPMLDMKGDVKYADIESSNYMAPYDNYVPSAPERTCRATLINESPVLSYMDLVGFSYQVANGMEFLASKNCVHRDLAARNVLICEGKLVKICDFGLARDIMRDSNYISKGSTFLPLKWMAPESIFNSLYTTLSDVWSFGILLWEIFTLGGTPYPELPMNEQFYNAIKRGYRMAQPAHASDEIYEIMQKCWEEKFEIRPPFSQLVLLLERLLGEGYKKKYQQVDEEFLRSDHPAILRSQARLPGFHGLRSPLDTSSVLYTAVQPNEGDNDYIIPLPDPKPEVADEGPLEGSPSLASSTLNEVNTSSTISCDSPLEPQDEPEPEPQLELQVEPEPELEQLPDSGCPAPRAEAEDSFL

PDGFRβ [2] = target: T1, PDGFRβ; test: PDGFRβ Cellular Assay (FLIPR, PDGF-induced intracellular calcium in NHDF-Ad); type: cell-based; details: PDGF-BB stimulation (30 ng/mL)
Protocol: (§1) NHDF-Ad (Normal Human Dermal Fibroblasts, Adult; Lonza) were seeded in 384-well fibronectin coated black-walled plates overnight @ 37° C./5% CO2. Cells were loaded with calcium indicator Fluo-4 for 45 minutes at 37° C. Cells were washed 2 times (Elx405, Biotek Instruments) to remove extracellular dye. For screening, cells were pre-incubated with test agents for 30 minutes, at a single concentration (10 uM) or at concentrations ranging from 0.0001 to 10.0 uM followed by PDGF-BB stimulation (30 ng/mL). Changes in fluorescence at 516 nm were measured simultaneously in all 384 wells using a cooled CCD camera. Data were generated by determining max-min fluorescence levels for unstimulated, stimulated, and drug treated samples. IC50 values for test compounds were calculated from % inhibition of PDGF-BB stimulated responses in the absence of inhibitor.
Target sequence in this assay (P09619 33-1106): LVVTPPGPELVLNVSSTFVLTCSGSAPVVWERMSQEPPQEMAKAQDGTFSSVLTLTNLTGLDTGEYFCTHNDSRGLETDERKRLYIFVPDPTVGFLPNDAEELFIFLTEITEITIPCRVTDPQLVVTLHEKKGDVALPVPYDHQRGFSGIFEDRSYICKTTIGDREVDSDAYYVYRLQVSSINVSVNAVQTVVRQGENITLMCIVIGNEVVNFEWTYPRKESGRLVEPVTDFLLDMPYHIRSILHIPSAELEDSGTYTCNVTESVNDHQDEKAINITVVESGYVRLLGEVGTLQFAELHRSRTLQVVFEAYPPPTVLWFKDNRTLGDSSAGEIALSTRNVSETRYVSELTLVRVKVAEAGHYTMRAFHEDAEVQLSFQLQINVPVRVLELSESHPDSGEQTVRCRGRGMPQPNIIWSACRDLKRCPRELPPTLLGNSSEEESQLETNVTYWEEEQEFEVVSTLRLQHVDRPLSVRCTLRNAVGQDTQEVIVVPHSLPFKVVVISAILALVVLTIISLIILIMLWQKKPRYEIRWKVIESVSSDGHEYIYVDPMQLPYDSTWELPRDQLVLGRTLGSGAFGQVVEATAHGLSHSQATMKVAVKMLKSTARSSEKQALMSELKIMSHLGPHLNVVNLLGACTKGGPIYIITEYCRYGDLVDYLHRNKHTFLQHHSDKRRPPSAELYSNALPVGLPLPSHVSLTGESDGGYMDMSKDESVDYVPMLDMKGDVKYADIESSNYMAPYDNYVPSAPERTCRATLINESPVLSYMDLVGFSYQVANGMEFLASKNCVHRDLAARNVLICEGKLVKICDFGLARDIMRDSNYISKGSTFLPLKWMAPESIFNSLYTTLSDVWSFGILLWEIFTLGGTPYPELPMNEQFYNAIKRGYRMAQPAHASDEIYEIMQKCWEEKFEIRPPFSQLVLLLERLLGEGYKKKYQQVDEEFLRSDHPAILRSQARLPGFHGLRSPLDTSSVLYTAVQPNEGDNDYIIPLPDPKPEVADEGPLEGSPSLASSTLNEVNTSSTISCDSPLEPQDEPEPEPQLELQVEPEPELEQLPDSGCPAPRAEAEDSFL

VEGFR2 = VEGFR2 (Homo sapiens (Human), UniProt P35968); test: VEGFR2 Cellular Assay (FLIPR, VEGF induced intracellular calcium in HUVEC); type: cell-based; details: VEGF165 stimulation (10 ng/mL)
Protocol: as §1, with “VEGFR2 Cellular Assay Automated FLIPR (Fluorometric Imaging Plate Reader) technology was used to screen for inhibitors of VEGF induced increases in intracellular calcium levels in fluorescent dye loaded endothelial cells. HUVEC (human umbilical vein endothelial cells) (Clonetics) were” for “NHDF-Ad (Normal Human Dermal Fibroblasts, Adult; Lonza) were”, “by VEGF165” for “by PDGF-BB”, “stimulation (10” for “stimulation (30”, “from” for “from %”, “of VEGF” for “of PDGF-BB”

Chain of VEGFR2 (KDR) (P35968 786-1356): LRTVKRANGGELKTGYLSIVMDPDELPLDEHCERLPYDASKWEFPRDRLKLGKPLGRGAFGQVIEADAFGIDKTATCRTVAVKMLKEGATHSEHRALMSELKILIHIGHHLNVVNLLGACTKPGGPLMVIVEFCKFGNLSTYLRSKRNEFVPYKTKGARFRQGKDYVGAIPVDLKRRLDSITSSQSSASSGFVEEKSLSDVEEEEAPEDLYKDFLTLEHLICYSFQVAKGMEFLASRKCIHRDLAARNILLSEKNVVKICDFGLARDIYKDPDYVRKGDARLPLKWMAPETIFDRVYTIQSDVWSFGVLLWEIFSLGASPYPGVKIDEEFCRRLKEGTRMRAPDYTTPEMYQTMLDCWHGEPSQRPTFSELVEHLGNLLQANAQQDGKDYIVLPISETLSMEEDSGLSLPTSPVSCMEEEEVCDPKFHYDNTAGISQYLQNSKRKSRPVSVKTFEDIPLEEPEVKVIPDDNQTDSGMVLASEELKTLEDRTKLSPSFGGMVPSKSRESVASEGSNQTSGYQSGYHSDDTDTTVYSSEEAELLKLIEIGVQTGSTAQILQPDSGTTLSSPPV
Chain of VEGFR2 (P35968 20-1356): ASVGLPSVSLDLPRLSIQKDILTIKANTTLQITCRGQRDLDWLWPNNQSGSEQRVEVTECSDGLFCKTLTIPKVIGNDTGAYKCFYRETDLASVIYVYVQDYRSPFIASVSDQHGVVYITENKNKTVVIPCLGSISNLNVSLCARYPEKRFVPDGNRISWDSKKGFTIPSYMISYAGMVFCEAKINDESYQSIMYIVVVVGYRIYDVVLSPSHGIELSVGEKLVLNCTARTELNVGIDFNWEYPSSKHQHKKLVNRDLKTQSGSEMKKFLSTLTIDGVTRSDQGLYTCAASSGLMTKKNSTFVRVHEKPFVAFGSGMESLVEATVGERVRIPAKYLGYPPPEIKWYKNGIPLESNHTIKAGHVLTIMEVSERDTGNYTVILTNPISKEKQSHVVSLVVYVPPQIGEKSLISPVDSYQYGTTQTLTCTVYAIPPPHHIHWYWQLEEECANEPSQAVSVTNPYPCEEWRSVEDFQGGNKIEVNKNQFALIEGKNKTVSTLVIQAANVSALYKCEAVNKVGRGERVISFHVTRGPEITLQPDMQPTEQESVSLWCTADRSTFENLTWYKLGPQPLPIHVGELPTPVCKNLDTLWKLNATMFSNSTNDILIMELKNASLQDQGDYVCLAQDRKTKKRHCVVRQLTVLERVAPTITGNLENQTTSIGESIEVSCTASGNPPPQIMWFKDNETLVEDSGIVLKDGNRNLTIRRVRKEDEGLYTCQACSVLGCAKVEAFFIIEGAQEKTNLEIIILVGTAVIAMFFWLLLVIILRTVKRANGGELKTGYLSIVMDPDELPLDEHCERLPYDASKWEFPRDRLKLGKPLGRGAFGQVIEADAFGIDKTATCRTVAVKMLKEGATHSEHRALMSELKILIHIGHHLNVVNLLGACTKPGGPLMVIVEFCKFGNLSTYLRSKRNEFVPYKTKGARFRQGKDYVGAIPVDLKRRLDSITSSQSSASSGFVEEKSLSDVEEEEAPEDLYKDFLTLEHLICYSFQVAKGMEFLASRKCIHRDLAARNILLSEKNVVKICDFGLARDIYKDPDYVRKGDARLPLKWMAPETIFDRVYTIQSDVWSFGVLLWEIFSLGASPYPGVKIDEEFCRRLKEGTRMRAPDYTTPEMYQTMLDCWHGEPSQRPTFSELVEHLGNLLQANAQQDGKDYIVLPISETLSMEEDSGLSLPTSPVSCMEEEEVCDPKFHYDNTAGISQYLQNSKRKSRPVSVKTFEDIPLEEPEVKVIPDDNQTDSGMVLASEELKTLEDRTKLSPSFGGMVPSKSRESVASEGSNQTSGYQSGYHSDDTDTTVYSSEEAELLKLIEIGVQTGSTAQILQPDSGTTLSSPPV

SMILES	IC50 (VEGFR2 (KDR)) [nM]	IC50 (PDGFRβ [1]) [nM]	IC50 (PDGFRβ [2]) [nM]	IC50 (VEGFR2) [nM]
CC(C)c1cccc(NC(=O)c2cccc(N3Cc4cnc5ccnn5c4C3)c2)c1 [Example 7, 3-(6,8-dihydro-7H-pyrazolo[1,5-a]pyrrolo[3,4-e]pyrimidin-7-yl)-N-(3-isopropylphenyl)benzamide]	> 10000			
O=C(Nc1cccc(C(F)(F)F)c1)c1cccc(N2CCc3c(cnc4ccnn34)C2)c1 [Example 4, 3-(8,9-dihydropyrazolo[1,5-a]pyrido[3,4-e]pyrimidin-7(6H)-yl)-N-[3-(trifluoromethyl)phenyl] benzamide]	6	27	192	70
O=C(Nc1cccc(N2CCc3c(cnc4ccnn34)C2)c1)c1ccccc1 [Example 10, N-[3-(8,9-dihydropyrazolo[1,5-a]pyrido[3,4-e]pyrimidin-7(6H)-yl)phenyl]benzamide]	101	202		
CC(C)c1cccc(NC(=O)c2cccc(N3CCc4c(cnc5ccnn45)C3)c2)c1 [Example 3, 3-(8,9-dihydropyrazolo[1,5-a]pyrido[3,4-e]pyrimidin-7(6H)-yl)-N-(3-isopropylphenyl)benzamide]	8	20		26
O=C(Nc1cccc(N2CCc3c(cnc4ccnn34)C2)c1)c1cccc(C(F)(F)F)c1 [Example 11, N-[3-(8,9-dihydropyrazolo[1,5-a]pyrido[3,4-e]pyrimidin-7(6H)-yl)phenyl]-3-(trifluoromethyl)benzamid]	6	21		
CC(C)(C)OC(=O)Nc1cccc(N2CCc3c(cnc4ccnn34)C2)c1 [Example 8, tert-Butyl (3-(8,9-dihydropyrazolo[1,5-a]pyrido[3,4-e]pyrimidin-7(6H)-yl)phenyl)carbamate]	> 10000			
Cc1cccc(NC(=O)Nc2cccc(N3CCc4c(cnc5ccnn45)C3)c2)c1 [Example 12, 1-[3-(8,9-dihydropyrazolo[1,5-a]pyrido[3,4-e]pyrimidin-7(6H)-yl)phenyl]-3-(3-methylphenyl)urea]	27	32		
